Reference: PubChem BioAssay (NCI)
Where “and” joins values, the source holds several entries; their conditions need not be identical. Equal values may be shown once.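 In this assay, cells in 96-well plates receive the compound at five concentrations for 48 hours. Endpoints are linearly interpolated between the surrounding concentrations. GI50: concentration for 50% inhibition of growth. TGI: total growth inhibition.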

Key:
Experiment in all cases: NCI tumour cell line growth inhibition, 48 h
SF-295 CNS = tested on: SF-295 CNS
MALME-3M melanoma = tested on: MALME-3M melanoma
SF-268 CNS = tested on: SF-268 CNS
RPMI-8226 leukemia = tested on: RPMI-8226 leukemia
NCI-H522 lung = tested on: NCI-H522 lung
M14 melanoma = tested on: M14 melanoma
HOP-92 NSCLC = tested on: HOP-92 NSCLC
LOX IMVI melanoma = tested on: LOX IMVI melanoma
OVCAR-4 ovarian = tested on: OVCAR-4 ovarian
HOP-62 NSCLC = tested on: HOP-62 NSCLC
OVCAR-5 ovarian = tested on: OVCAR-5 ovarian
NCI/ADR-RES ovarian = tested on: NCI/ADR-RES ovarian
SN12C renal = tested on: SN12C renal
OVCAR-8 ovarian = tested on: OVCAR-8 ovarian
UO-31 renal = tested on: UO-31 renal
EKVX NSCLC = tested on: EKVX NSCLC
T-47D breast = tested on: T-47D breast
UACC-62 melanoma = tested on: UACC-62 melanoma
HS 578T breast = tested on: HS 578T breast
SNB-19 CNS = tested on: SNB-19 CNS
SK-OV-3 ovarian = tested on: SK-OV-3 ovarian
PC-3 prostate = tested on: PC-3 prostate
MDA-N = tested on: MDA-N
BT-549 breast = tested on: BT-549 breast
CAKI-1 renal = tested on: CAKI-1 renal
IGROV1 ovarian = tested on: IGROV1 ovarian
RXF 393 renal = tested on: RXF 393 renal
UACC-257 melanoma = tested on: UACC-257 melanoma
MDA-MB-435 = tested on: MDA-MB-435
NCI-H23 lung = tested on: NCI-H23 lung
MDA-MB-231 breast = tested on: MDA-MB-231 breast
ACHN renal = tested on: ACHN renal
COLO 205 colon = tested on: COLO 205 colon
CCRF-CEM leukemia = tested on: CCRF-CEM leukemia
DU-145 prostate = tested on: DU-145 prostate
HCT-15 colon = tested on: HCT-15 colon
SW-620 colon = tested on: SW-620 colon
TK-10 renal = tested on: TK-10 renal
U251 CNS = tested on: U251 CNS
KM12 colon = tested on: KM12 colon
NCI-H226 lung = tested on: NCI-H226 lung
SK-MEL-28 melanoma = tested on: SK-MEL-28 melanoma
A549 NSCLC = tested on: A549 NSCLC
HCT-116 colon = tested on: HCT-116 colon
HT29 colon = tested on: HT29 colon
K-562 leukemia = tested on: K-562 leukemia
A498 renal = tested on: A498 renal
SK-MEL-5 melanoma = tested on: SK-MEL-5 melanoma
SNB-75 CNS = tested on: SNB-75 CNS
SK-MEL-2 melanoma = tested on: SK-MEL-2 melanoma
MOLT-4 leukemia = tested on: MOLT-4 leukemia
OVCAR-3 ovarian = tested on: OVCAR-3 ovarian
786-0 renal = tested on: 786-0 renal
SR leukemia = tested on: SR leukemia
NCI-H460 lung = tested on: NCI-H460 lung
HCC-2998 colon = tested on: HCC-2998 colon
HL-60(TB) leukemia = tested on: HL-60(TB) leukemia
MCF7 breast = tested on: MCF7 breast
SF-539 CNS = tested on: SF-539 CNS

Cc1ccccc1N=Nc1cc(C)c(N=Nc2c(O)ccc3ccccc23)cc1C was tested, and the TGI (SF-295 CNS) was over 100000 nM, the TGI (MALME-3M melanoma) was over 100000 nM and the TGI (SF-268 CNS) was over 100000 nM. It also gave a TGI (RPMI-8226 leukemia) of over 100000 nM, a TGI (NCI-H522 lung) of over 100000 nM and a TGI (M14 melanoma) of over 100000 nM. It also gave a TGI (HOP-92 NSCLC) of over 100000 nM, a TGI (LOX IMVI melanoma) of over 100000 nM and a TGI (OVCAR-4 ovarian) of over 100000 nM. It also gave a TGI (HOP-62 NSCLC) of over 100000 nM, a TGI (OVCAR-5 ovarian) of over 100000 nM and a TGI (NCI/ADR-RES ovarian) of over 100000 nM. For the same molecule, the TGI (SN12C renal) was over 100000 nM, the TGI (OVCAR-8 ovarian) was over 100000 nM and the TGI (UO-31 renal) was over 100000 nM. It also gave a TGI (EKVX NSCLC) of over 100000 nM, a TGI (T-47D breast) of over 100000 nM and a TGI (UACC-62 melanoma) of over 100000 nM. For the same molecule, the TGI (HS 578T breast) was over 100000 nM, the TGI (SNB-19 CNS) was over 100000 nM and the TGI (SK-OV-3 ovarian) was over 100000 nM. It also gave a TGI (PC-3 prostate) of over 100000 nM, a TGI (MDA-N) of over 100000 nM and a TGI (BT-549 breast) of over 100000 nM. It also gave a TGI (CAKI-1 renal) of over 100000 nM, a TGI (IGROV1 ovarian) of over 100000 nM and a TGI (RXF 393 renal) of over 100000 nM. For the same molecule, the TGI (UACC-257 melanoma) was over 100000 nM, the TGI (MDA-MB-435) was over 100000 nM and the TGI (NCI-H23 lung) was over 100000 nM. The TGI (MDA-MB-231 breast) was over 100000 nM, the TGI (ACHN renal) was over 100000 nM and the TGI (COLO 205 colon) was over 100000 nM. For the same molecule, the TGI (CCRF-CEM leukemia) was over 100000 nM, the TGI (DU-145 prostate) was over 100000 nM and the TGI (HCT-15 colon) was over 100000 nM. The TGI (SW-620 colon) was over 100000 nM, the TGI (TK-10 renal) was over 100000 nM and the TGI (U251 CNS) was over 100000 nM. The TGI (KM12 colon) was over 100000 nM, the TGI (NCI-H226 lung) was over 100000 nM and the TGI (SK-MEL-28 melanoma) was over 100000 nM. It also gave a TGI (A549 NSCLC) of over 100000 nM, a TGI (HCT-116 colon) of over 100000 nM and a TGI (HT29 colon) of over 100000 nM. For the same molecule, the TGI (K-562 leukemia) was over 100000 nM, the TGI (A498 renal) was over 100000 nM and the TGI (SK-MEL-5 melanoma) was over 100000 nM. For the same molecule, the TGI (SNB-75 CNS) was over 100000 nM, the TGI (SK-MEL-2 melanoma) was over 100000 nM and the TGI (MOLT-4 leukemia) was over 100000 nM. For the same molecule, the TGI (OVCAR-3 ovarian) was over 100000 nM and the TGI (786-0 renal) was over 100000 nM.
In the case of COc1ccc2[nH]c3c(C)c4ccnc(NCCCN(C)CCCNc5ccc6nnn7c8ccccc8c(=O)c5c67)c4c(C)c3c2c1, the TGI (SF-295 CNS) was 1440 nM, the GI50 (SF-268 CNS) was 209 nM and the TGI (SF-268 CNS) was 2510 nM and 3140 nM. It also gave a TGI (SR leukemia) of over 100000 nM, a TGI (RPMI-8226 leukemia) of 2190 nM and a TGI (NCI-H522 lung) of 1670 nM. It also gave a TGI (M14 melanoma) of 2130 nM, a TGI (LOX IMVI melanoma) of 1620 nM and a TGI (OVCAR-4 ovarian) of 4720 nM. For the same molecule, the TGI (HOP-62 NSCLC) was 2050 nM, the TGI (OVCAR-5 ovarian) was 2730 nM and the TGI (NCI-H460 lung) was 492 nM. For the same molecule, the TGI (NCI/ADR-RES ovarian) was 2690 nM, the GI50 (SN12C renal) was 294 nM and the TGI (SN12C renal) was 1990 nM and 1670 nM. The TGI (OVCAR-8 ovarian) was 2130 nM, the GI50 (UO-31 renal) was 1290 nM and the TGI (UO-31 renal) was 2610 nM and 2760 nM. The TGI (EKVX NSCLC) was 2170 nM, the TGI (T-47D breast) was 6940 nM and the TGI (HS 578T breast) was 3910 nM. For the same molecule, the TGI (SNB-19 CNS) was 2420 nM, the GI50 (SK-OV-3 ovarian) was 3290 nM and the TGI (SK-OV-3 ovarian) was over 100000 nM. The TGI (PC-3 prostate) was 1910 nM, the TGI (MDA-N) was 2090 nM and the TGI (BT-549 breast) was 3510 nM. The TGI (CAKI-1 renal) was 2270 nM, the TGI (IGROV1 ovarian) was 1800 nM and the TGI (RXF 393 renal) was 2570 nM. The TGI (UACC-257 melanoma) was 4750 nM, the TGI (MDA-MB-435) was 1750 nM and the TGI (NCI-H23 lung) was 2040 nM. For the same molecule, the TGI (MDA-MB-231 breast) was 3190 nM, the GI50 (ACHN renal) was 136 nM and the TGI (ACHN renal) was 1290 nM and 1550 nM. It also gave a TGI (COLO 205 colon) of 3530 nM, a TGI (CCRF-CEM leukemia) of 5510 nM and a TGI (HCC-2998 colon) of 1440 nM. The TGI (HCT-15 colon) was 1570 nM, the TGI (SW-620 colon) was 1160 nM and the TGI (TK-10 renal) was 2380 nM. It also gave a TGI (U251 CNS) of 1670 nM, a TGI (HL-60(TB) leukemia) of 1210 nM and a GI50 (KM12 colon) of 818 nM. For the same molecule, the TGI (KM12 colon) was 1800 nM and 2330 nM, the GI50 (SK-MEL-28 melanoma) was 3450 nM and the TGI (A549 NSCLC) was 1060 nM. For the same molecule, the TGI (HCT-116 colon) was 1140 nM, the TGI (MCF7 breast) was 1250 nM and the TGI (HT29 colon) was 1360 nM. For the same molecule, the TGI (A498 renal) was 2880 nM, the GI50 (SNB-75 CNS) was 1410 nM and the TGI (SNB-75 CNS) was 2170 nM and 2860 nM. For the same molecule, the TGI (MOLT-4 leukemia) was 132 nM, the TGI (SF-539 CNS) was 1380 nM and the TGI (OVCAR-3 ovarian) was 2400 nM. It also gave a TGI (786-0 renal) of 1690 nM.
